Experimental data taken from US8188059B2, “Compounds and methods for modulating expression of GCGR” (Isis Pharmaceuticals, Inc., priority 2006, dated 2012).
Strand notation (5' to 3'): a small letter for the sugar, then the base; units joined by * are phosphorothioate-linked, units joined directly phosphodiester-linked; [ ] holds rarer units or linkages, { } end groups; capitals alone tell only the bases. e = 2'-O-(2-methoxyethyl) (MOE); [5mC] = 5-methylcytosine; d = 2'-deoxy (DNA)

Tested on: PCSK9 mRNA
Type: cell-based, human
Details: Hep3B cells, 100 nM, relative to untreated control cells; for % Inhib (PCSK9 mRNA): 0 = no reduction observed
Experimental: When cells reached appropriate confluency, they were treated with oligonucleotide using LIPOFECTIN® as described. […] Cells were treated and data were obtained in duplicate or triplicate. […] Cells were harvested 16-24 hours after oligonucleotide treatment.
Short antisense compounds targeted to a PCSK9 nucleic acid were tested for their effects on PCSK9 mRNA in vitro. The Isis No, gapmer motif and SEQ ID NO of each short antisense compound are shown again in Table 75. Cultured Hep3B cells were treated with 100 nM of short antisense compound. 5-10-5 MOE gapmers targeted to a PCSK9 nucleic acid were used as positive controls. After the treatment period, RNA was isolated from the cells and PCSK9 mRNA levels were measured by quantitative real-time PCR, as described herein. PCSK9 mRNA levels were adjusted according to total RNA content as measured by RIBOGREEN®. Results are presented in Table 75 as percent inhibition of PCSK9 (% Inhib), relative to untreated control cells.

Substance | % Inhib (PCSK9 mRNA) [%] | % Inhibition Range (PCSK9 mRNA)
400300 (antisense eG*eG*dG*dA*dT*dG*d[5mC]*dT*d[5mC]*dT*dG*dG*eG*e[5mC]) [compound 400300] | 9 | 
400340 (e[5mC]*eT*dG*dG*dT*d[5mC]*d[5mC]*dT*d[5mC]*dA*dG*dG*eG*eA; antisense) [compound 400340] | 0 | 
400368 (antisense e[5mC]*eG*dG*d[5mC]*dT*d[5mC]*d[5mC]*dG*dG*d[5mC]*dA*dG*e[5mC]*eA) [compound 400368] | 11 | 10-20%
400326 (eT*e[5mC]*d[5mC]*d[5mC]*d[5mC]*dA*dA*dA*dG*dT*d[5mC]*d[5mC]*e[5mC]*e[5mC]; antisense) [compound 400326] | 0 | 
400361 (antisense eG*eG*d[5mC]*dA*dG*d[5mC]*dA*dG*dA*dT*dG*dG*e[5mC]*eA) [compound 400361] | 2 | 
400371 (antisense eA*eG*dT*dT*dA*d[5mC]*dA*dA*dA*dA*dG*d[5mC]*eA*eA) [compound 400371] | 0 | 
400342 (eG*eT*dG*d[5mC]*dT*dG*dG*dG*dG*dG*dG*d[5mC]*eA*eG; antisense) [compound 400342] | 0 | 
400362 (antisense e[5mC]*eG*dG*d[5mC]*dA*dG*d[5mC]*dA*dG*dA*dT*dG*eG*e[5mC]) [compound 400362] | 16 | 10-20%
400363 (antisense e[5mC]*e[5mC]*dG*dG*d[5mC]*dA*dG*d[5mC]*dA*dG*dA*dT*eG*eG) [compound 400363] | 8 | 
400334 (e[5mC]*eT*d[5mC]*dA*dG*dG*dG*dA*dA*d[5mC]*d[5mC]*dA*eG*eG; antisense) [compound 400334] | 0 | 
400319 (e[5mC]*eG*dA*dA*dT*dA*dA*dA*d[5mC]*dT*d[5mC]*d[5mC]*eA*eG; antisense) [compound 400319] | 0 | 
400328 (eA*e[5mC]*dG*dT*dG*dG*dG*d[5mC]*dA*dG*d[5mC]*dA*eG*e[5mC]; antisense) [compound 400328] | 13 | 10-20%
400299 (antisense eA*e[5mC]*dA*dT*dG*dG*dG*dG*d[5mC]*dA*dA*d[5mC]*eT*eT) [compound 400299] | 0 | 
400357 (antisense eT*eG*dG*d[5mC]*dA*dG*d[5mC]*dA*dG*dG*dA*dA*eG*e[5mC]) [compound 400357] | 0 | 
400304 (antisense eG*eA*dG*dA*dT*dA*d[5mC]*dA*d[5mC]*d[5mC]*dT*d[5mC]*e[5mC]*eA) [compound 400304] | 11 | 10-20%
400311 (eA*eT*d[5mC]*d[5mC]*d[5mC]*dG*dG*d[5mC]*d[5mC]*dG*d[5mC]*dT*eG*eA; antisense) [compound 400311] | 18 | 10-20%
400341 (eG*e[5mC]*dT*dG*dG*dT*d[5mC]*d[5mC]*dT*d[5mC]*dA*dG*eG*eG; antisense) [compound 400341] | 0 | 
400348 (antisense eT*eG*dG*dA*dG*d[5mC]*dA*dG*d[5mC]*dT*d[5mC]*dA*eG*e[5mC]) [compound 400348] | 0 | 
400332 (e[5mC]*eA*dG*dG*dG*dA*dA*d[5mC]*d[5mC]*dA*dG*dG*e[5mC]*e[5mC]; antisense) [compound 400332] | 0 | 
400312 (e[5mC]*eA*dT*d[5mC]*d[5mC]*d[5mC]*dG*dG*d[5mC]*d[5mC]*dG*d[5mC]*eT*eG; antisense) [compound 400312] | 28 | 20-30%
400364 (antisense eT*e[5mC]*d[5mC]*dG*dG*d[5mC]*dA*dG*d[5mC]*dA*dG*dA*eT*eG) [compound 400364] | 0 | 
400354 (antisense eG*eA*d[5mC]*dA*d[5mC]*d[5mC]*d[5mC]*dT*d[5mC]*dA*d[5mC]*d[5mC]*e[5mC]*e[5mC]) [compound 400354] | 19 | 10-20%
400318 (e[5mC]*e[5mC]*dT*dA*dT*dG*dA*dG*dG*dG*dT*dG*e[5mC]*e[5mC]; antisense) [compound 400318] | 26 | 20-30%
400339 (eT*eG*dG*dT*d[5mC]*d[5mC]*dT*d[5mC]*dA*dG*dG*dG*eA*eA; antisense) [compound 400339] | 0 | 
400329 (e[5mC]*eA*d[5mC]*dG*dT*dG*dG*dG*d[5mC]*dA*dG*d[5mC]*eA*eG; antisense) [compound 400329] | 14 | 10-20%

Substance | % Inhib (PCSK9 mRNA) [%] | % Inhibition Range (PCSK9 mRNA)
400321 (eT*e[5mC]*d[5mC]*dG*dA*dA*dT*dA*dA*dA*d[5mC]*dT*e[5mC]*e[5mC]; antisense) [compound 400321] | 0 | 
400343 (eG*eG*dT*dG*d[5mC]*dT*dG*dG*dG*dG*dG*dG*e[5mC]*eA; antisense) [compound 400343] | 0 | 
400316 (eT*eA*dT*dG*dA*dG*dG*dG*dT*dG*d[5mC]*d[5mC]*eG*e[5mC]; antisense) [compound 400316] | 8 | 
400324 (eG*eA*dG*dT*dA*dG*dA*dG*dG*d[5mC]*dA*dG*eG*e[5mC]; antisense) [compound 400324] | 7 | 
400314 (eG*eT*dG*d[5mC]*d[5mC]*d[5mC]*dT*dT*d[5mC]*d[5mC]*d[5mC]*dT*eT*eG; antisense) [compound 400314] | 26 | 20-30%
400351 (antisense eA*e[5mC]*d[5mC]*d[5mC]*dT*d[5mC]*dA*d[5mC]*d[5mC]*d[5mC]*d[5mC]*d[5mC]*eA*eA) [compound 400351] | 14 | 10-20%
400302 (antisense eG*eA*dT*dA*d[5mC]*dA*d[5mC]*d[5mC]*dT*d[5mC]*d[5mC]*dA*e[5mC]*e[5mC]) [compound 400302] | 0 | 
400315 (eA*eT*dG*dA*dG*dG*dG*dT*dG*d[5mC]*d[5mC]*dG*e[5mC]*eT; antisense) [compound 400315] | 0 | 
400320 (e[5mC]*e[5mC]*dG*dA*dA*dT*dA*dA*dA*d[5mC]*dT*d[5mC]*e[5mC]*eA; antisense) [compound 400320] | 0 | 
400322 (eT*eT*d[5mC]*d[5mC]*dG*dA*dA*dT*dA*dA*dA*d[5mC]*eT*e[5mC]; antisense) [compound 400322] | 0 | 
400365 (antisense e[5mC]*eT*d[5mC]*d[5mC]*dG*dG*d[5mC]*dA*dG*d[5mC]*dA*dG*eA*eT) [compound 400365] | 25 | 20-30%
400358 (antisense eA*eT*dG*dG*d[5mC]*dA*dG*d[5mC]*dA*dG*dG*dA*eA*eG) [compound 400358] | 12 | 10-20%
400303 (antisense eA*eG*dA*dT*dA*d[5mC]*dA*d[5mC]*d[5mC]*dT*d[5mC]*d[5mC]*eA*e[5mC]) [compound 400303] | 0 | 
400346 (eG*eA*dG*d[5mC]*dA*dG*d[5mC]*dT*d[5mC]*dA*dG*d[5mC]*eA*eG; antisense) [compound 400346] | 5 | 
400325 (e[5mC]*e[5mC]*d[5mC]*d[5mC]*dA*dA*dA*dG*dT*d[5mC]*d[5mC]*d[5mC]*e[5mC]*eA; antisense) [compound 400325] | 4 | 
400366 (antisense eG*e[5mC]*dT*d[5mC]*d[5mC]*dG*dG*d[5mC]*dA*dG*d[5mC]*dA*eG*eA) [compound 400366] | 15 | 10-20%
400317 (e[5mC]*eT*dA*dT*dG*dA*dG*dG*dG*dT*dG*d[5mC]*e[5mC]*eG; antisense) [compound 400317] | 7 | 
400301 (antisense e[5mC]*eG*d[5mC]*dT*d[5mC]*d[5mC]*dA*dG*dG*dT*dT*d[5mC]*e[5mC]*eA) [compound 400301] | 27 | 20-30%
400369 (antisense e[5mC]*e[5mC]*dG*dG*d[5mC]*dT*d[5mC]*d[5mC]*dG*dG*d[5mC]*dA*eG*e[5mC]) [compound 400369] | 0 | 
400347 (antisense eG*eG*dA*dG*d[5mC]*dA*dG*d[5mC]*dT*d[5mC]*dA*dG*e[5mC]*eA) [compound 400347] | 0 | 
400323 (eG*e[5mC]*d[5mC]*dA*dG*dG*dG*dG*d[5mC]*dA*dG*d[5mC]*eA*eG; antisense) [compound 400323] | 0 | 
400306 (antisense e[5mC]*eT*dG*dT*d[5mC]*dA*d[5mC]*dA*d[5mC]*dT*dT*dG*e[5mC]*eT) [compound 400306] | 40 | 40-50%
400298 (antisense e[5mC]*eA*dT*dG*dG*dG*dG*d[5mC]*dA*dA*d[5mC]*dT*eT*e[5mC]) [compound 400298] | 0 | 
400337 (eG*eT*d[5mC]*d[5mC]*dT*d[5mC]*dA*dG*dG*dG*dA*dA*e[5mC]*e[5mC]; antisense) [compound 400337] | 0 | 
